In US20220202884A1 (SENECA THERAPEUTICS, INC., priority 2019, published 2022):
Structures can show the parent of a compound that is named as a salt.

Key:
[1] = system: triple negative breast cancer cells (BT-549); test: SVV infection, replication and killing of drug-treated BT-549 cells; format: cell-based; settings: FIG. 2
Excerpt: (§1) In certain instances, infection with Seneca Valley Virus can be toxic to triple negative breast cancer cell lines. In these cases, it is necessary to reduce innate antiviral responses through the use of certain approved pharmaceutical compounds (see FIG. 1, FIG. 2 and FIG. 5).

[2] = system: HCT-116 cells (Colorectal cancer cells); test: SVV mediated killing of drug-pretreated HCT-116 cells; format: cell-based, human; settings: HCT-116 cells pretreated for 24 hours with compound, FIG. 4
Description: HCT-116 cells (Colorectal cancer cells) were pretreated for 24 hours in pharmaceutical compounds to disrupt innate antiviral responses to allow increased viral mediated killing.

[3] = system: HTB-126 cells (triple negative breast cancer, TNBC); test: Seneca Valley Virus (SVV) mediated killing of drug-pretreated HTB-126 cells; format: cell-based
Excerpt: Standard deviations of replicates are presented as error bars (VP/cell with 1 PFU or TCID50 unit per 100 VPs).
as §1

[4] = system: U2OS cells (osteosarcoma); test: SVV mediated killing of drug-pretreated U2OS cells; format: cell-based; settings: U2OS cells pretreated for 24 hours with compound, FIG. 3
Description: U2OS cells (osteosarcoma) were pretreated for 24 hours in pharmaceutical compounds to disrupt innate antiviral responses to allow increased viral mediated killing.

Row | Structure (SMILES) | susceptibility to virus mediated killing by SVV [1] | Seneca Valley Virus mediated cell killing [2] | Seneca Valley Virus mediated cell killing ([2]; listed as vorinostat) | enhancement of SVV replication and cell death ([3]; FIG. 5, TNBC cell lines, 1PFU/cell of SVV and 0.8 uM of Tofacintinib) | susceptibility to virus mediated killing by SVV ([3]; HTB-126 cells, FIG. 1 (pretreated 24 hours in 12.5 micromolar tofacitinib, then 50 VP of SVV/cell) and FIG. 5) | Seneca Valley Virus mediated cell killing [4] | Seneca Valley Virus mediated cell killing ([4]; listed as tofacitinib) | Seneca Valley Virus mediated cell killing ([2]; listed as tofacitnib) | Seneca Valley Virus mediated cell killing ([2]; listed as dimethyl fumarate)
1 | O=C(CCCCCCC(=O)Nc1ccccc1)NO [Vorinostat] | modified and favored the susceptibility to virus mediated killing by SVV | increase in cell killing was mainly caused by MAC inhibitors | increased Seneca Valley Virus mediated cell killing |  |  |  |  |  | 
2 | C[C@@H]1CCN(C(=O)CC#N)C[C@@H]1N(C)c1ncnc2[nH]ccc12 [Tofacitinib] | modified and favored the susceptibility to virus mediated killing by SVV | mainly caused by MAC inhibitors (Panobinostat or Vorinostat) instead of the JAK inhibitors |  | substantial enhancement of SVV replication in TNBC cell lines and cell death | modified and favored the susceptibility to virus mediated killing by SVV | augmented SVV mediated cell killing | increased Seneca Valley Virus mediated cell killing | smaller effect | 
3 | COC(=O)/C=C/C(=O)OC [Dimethyl fumarate, dimethyl fumarate] |  | mainly caused by MAC inhibitors (Panobinostat or Vorinostat) instead of the JAK inhibitors |  |  |  | increased Seneca Valley Virus mediated cell killing |  |  | smaller effect
